One data set is described as follows: Oral LD50 in mice. The settings on record: mouse, in vivo.
In data set [1] the test system is reserpine-induced hypothermia. The experiment in a line: Reversal of reserpine-induced hypothermia in mice (RHL test). Format: in vivo. The settings on record: reserpine 2 mg./kg. s.c., T0 to T4 (4 hours). The method, then: The reversal of reserpine-induced hypothermia, known as the RHL test, is carried out as follows:
Mice are kept in a constant temperature room maintained at 21 ± 1° C. Each member of groups of 4 mice is given reserpine (2 mg. of base per kg. bodyweight, given subcutaneously as the acetate). Seventeen hours later the oesophageal temperature (T0) of each mouse is recorded by means of an orally-inserted probe coupled to an electric thermometer which is calibrated in degrees Centrigrade and which can be read to 0.1° C. Immediately after the temperature measurement the mice are dosed orally with the test compound, or with imipramine, each mouse in a group of 4 being given the same substance, and the oesophageal temperatures are again recorded after 4 hours (T4). The compound under test is dosed at serial dilutions, e.g. 100, 30, 10, 3, 1, 0.3, 0.1 mg./kg. Imipramine is used as the control. […] At 1 mg./kg. it produces an average rise of 1.7° C. A test compound which at a certain does level gives a rise in temperature equal to or greater than that given by 1 mg./kg. of imipramine, dosed to a different set of mice on the same day, is adjudged "active" at that dose.

Molecules are shown by their SMILES.

Usually LD50 stands for the dose expected to kill half of the subjects tested. Read a low LD50 as greater toxicity. The molecule `c1ccc(Oc2ccccc2CCC2CNCCO2)cc1` (stereo not drawn) [2-[β-(2-phenoxyphenyl)ethyl]morpholine] registered an LD50 in “Oral LD50 in mice” of 1000 mg/kg.

For the molecule `CN(C)CCCN1c2ccccc2CCc2ccccc21` [imipramine], the “average rise in the temperature of a reserpinised mouse” value was 1.7 °C in data set [1] (imipramine 1 mg./kg. oral) and 3 °C in data set [1] (imipramine 3 mg./kg. oral).

On to `Cc1ccccc1CCC1CNCCO1` (stereo not drawn) [2-[β-(2-methylphenyl)ethyl]morpholine], for which the LD50 in the data set “Oral LD50 in mice” is 550 mg/kg.

The values are drawn from patent US4049808A, “2-Phenyl ethyl morpholine compounds” (Imperial Chemical Industries Limited, priority 1974, dated 1977).
